{"source": "patent US8975398B2", "about": "“NAMPT inhibitors” (AbbVie Inc., priority 2012, dated 2015)"}
{"system": "PC3 cells", "test": "NAMPT Cell Proliferation Assay (Cell Titer Glo; also performed in the presence of 0.3 mM nicotinamide mononucleotide)", "assay_type": "cell-based", "conditions": "5 days incubation, cell viability by Cell Titer Glo", "description": "(§1) NAMPT Cell Proliferation Assay\n(§2) PC3 cells were seeded in 96-well black plates (Corning #3904) at 500 cells/well in 90 μl of RPMI media containing 10% heat-inactivated FBS and incubated overnight at 37° C. and 5% CO2 to allow cells to attach to wells. The following day, test compounds were serially diluted in neat DMSO to 1000× final concentrations prior to dilution with RPMI media to 10× and 1% DMSO. Ten μL of the 10× compounds were then transferred to wells containing cells to produce a dose response of 10-fold dilutions from 10 μM to 1×10^−5 μM. Cells were incubated for 5 days at 37° C. and 5% CO2, then cell viability was measured using Cell Titer Glo reagent (Promega #G7571). Percent inhibition values were calculated and fitted to a sigmoidal dose response curves using Assay Explorer software to determine IC50s.", "units": {"IC50": "nM"}}
{"smiles": "Cc1ccccc1C(=O)N1CC(c2ccc(NC(=O)[C@H]3CCN(c4cccnn4)C3)cc2)C1", "note": "[Example 791]", "IC50": 7.48}
{"system": "PC3 cells", "test": "NAMPT Cell Proliferation Assay (Cell Titer Glo; also performed in the presence of 0.3 mM nicotinamide mononucleotide)", "assay_type": "cell-based", "conditions": "Homo sapiens, PC-3, 120 h, 5 days incubation, cell viability by Cell Titer Glo", "description": "as §1, §2", "units": {"IC50": "nM"}}
{"smiles": "O=C(N[C@H]1CCOC1)c1ccc(NC(=O)C2CN(c3cccnn3)C2)cc1", "note": "[Example 1020, 1-(pyridazin-3-yl)-N-{4-[(3S)-tetrahydrofuran-3-ylcarbamoyl]phenyl}azetidine-3-carboxamide]", "IC50": 7270}
{"smiles": "O=C(N[C@H]1CCN(c2cccnn2)C1)c1ccc(C2CCN(C(=O)c3ccccc3F)CC2)o1", "note": "[Example 907, 5-[1-(2-fluorobenzoyl)piperidin-4-yl]-N-[(3S)-1-(pyridazin-3-yl)pyrrolidin-3-yl]furan-2-carboxamide]", "IC50": 6750}
{"smiles": "O=C(Nc1ccc(C2CCN(C(=O)CC3CC3)CC2)c(F)c1)C1CN(c2cccnn2)C1", "note": "[Example 888, N-{4-[1-(cyclopropylacetyl)piperidin-4-yl]-3-fluorophenyl}-1-(pyridazin-3-yl)azetidine-3-carboxamide]", "IC50": 9.76}
{"smiles": "O=C(NCC1COC1)c1ccc(NC(=O)C2CN(c3cccnn3)C2)cc1", "note": "[Example 990, N-{4-[(oxetan-3-ylmethyl)carbamoyl]phenyl}-1-(pyridazin-3-yl)azetidine-3-carboxamide]", "IC50": 6810}
{"smiles": "CCOCC(=O)N1CCC(Cc2ccc(NC(=O)C3CN(c4cccnn4)C3)cc2)CC1", "note": "[Example 946, N-(4-{[1-(ethoxyacetyl)piperidin-4-yl]methyl}phenyl)-1-(pyridazin-3-yl)azetidine-3-carboxamide]", "IC50": 2.89}
{"smiles": "Nc1ncccc1C(=O)N1CCC(c2ccc(NC(=O)C3CN(c4cccnn4)C3)cc2)CC1", "note": "[Example 910, N-(4-{1-[(2-aminopyridin-3-yl)carbonyl]piperidin-4-yl}phenyl)-1-(pyridazin-3-yl)azetidine-3-carboxamide]", "IC50": 6.51}
{"smiles": "CC(C)(C)CC(=O)N1CCC(c2ccc(C(=O)N[C@H]3CCN(c4cccnn4)C3)s2)CC1", "note": "[Example 1014, 5-[1-(3,3-dimethylbutanoyl)piperidin-4-yl]-N-[(3S)-1-(pyridazin-3-yl)pyrrolidin-3-yl]thiophene-2-carboxamide]", "IC50": 219}
{"smiles": "Cc1ccnnc1N1CC(C(=O)Nc2ccc(C3CCN(C(=O)c4ccccc4)CC3)cc2)C1", "note": "[Example 906, N-[4-(1-benzoylpiperidin-4-yl)phenyl]-1-(4-methylpyridazin-3-yl)azetidine-3-carboxamide]", "IC50": 0.879}
{"smiles": "Cc1ccc(N2CC(C(=O)Nc3ccc(-c4cnn(CC(C)(C)C)c4)cc3)C2)nn1", "note": "[Example 878, N-{4-[1-(2,2-dimethylpropyl)-1H-pyrazol-4-yl]phenyl}-1-(6-methylpyridazin-3-yl)azetidine-3-carboxamide]", "IC50": 70.6}
{"smiles": "CCCCCC(=O)N1CCC(Cc2ccc(NC(=O)C3CN(c4cccnn4)C3)cc2)CC1", "note": "[Example 948, N-{4-[(1-hexanoylpiperidin-4-yl)methyl]phenyl}-1-(pyridazin-3-yl)azetidine-3-carboxamide]", "IC50": 2.26}
{"smiles": "CC1(NC(=O)c2ccc(NC(=O)C3CN(c4cccnn4)C3)cc2)CC1", "note": "[Example 993, N-{4-[(1-methylcyclopropyl)carbamoyl]phenyl}-1-(pyridazin-3-yl)azetidine-3-carboxamide]", "IC50": 809}
{"smiles": "O=C(Nc1ccc(C2CCN(C(=O)c3ccccc3F)CC2)nc1)C1CN(c2cccnn2)C1", "note": "[Example 914, N-{6-[1-(2-fluorobenzoyl)piperidin-4-yl]pyridin-3-yl}-1-(pyridazin-3-yl)azetidine-3-carboxamide]", "IC50": 2.7}
{"smiles": "O=C(Nc1ccc(CC2CCN(C(=O)c3cn[nH]c3)CC2)cc1)C1CN(c2cccnn2)C1", "note": "[Example 929, N-(4-{[1-(1H-pyrazol-4-ylcarbonyl)piperidin-4-yl]methyl}phenyl)-1-(pyridazin-3-yl)azetidine-3-carboxamide]", "IC50": 27.1}
{"smiles": "O=C(Nc1cnn(C2CCN(C(=O)c3ccccc3F)CC2)c1)C1CN(c2cccnn2)C1", "note": "[Example 971, N-{1-[1-(2-fluorobenzoyl)piperidin-4-yl]-1H-pyrazol-4-yl}-1-(pyridazin-3-yl)azetidine-3-carboxamide]", "IC50": 70.8}
{"smiles": "O=C(NC[C@H]1CCCO1)c1ccc(NC(=O)C2CN(c3cccnn3)C2)cc1", "note": "[Example 996, 1-(pyridazin-3-yl)-N-(4-{[(2R)-tetrahydrofuran-2-ylmethyl]carbamoyl}phenyl)azetidine-3-carboxamide]", "IC50": 104}
{"smiles": "C[C@H](NC(=O)c1ccc(NC(=O)C2CN(c3cccnn3)C2)cc1)C1CC1", "note": "[Example 981, N-(4-{[(1S)-1-cyclopropylethyl]carbamoyl}phenyl)-1-(pyridazin-3-yl)azetidine-3-carboxamide]", "IC50": 1060}
{"smiles": "O=C(NC1CN2CCC1CC2)c1ccc(NC(=O)C2CN(c3cccnn3)C2)cc1", "note": "(centres unmarked) [Example 988, N-[4-(1-azabicyclo[2.2.2]oct-3-ylcarbamoyl)phenyl]-1-(pyridazin-3-yl)azetidine-3-carboxamide]", "IC50": 1240}
{"smiles": "CC(C)(C)C(=O)N1CCC(Cc2ccc(NC(=O)C3CN(c4cccnn4)C3)cc2)CC1", "note": "[Example 897, N-(4-{[1-(2,2-dimethylpropanoyl)piperidin-4-yl]methyl}phenyl)-1-(pyridazin-3-yl)azetidine-3-carboxamide]", "IC50": 1.56}
{"smiles": "Cc1ccc(N2CC(C(=O)Nc3ccc(O[C@@H]4CCN(C(=O)CC(C)C)C4)cc3)C2)nn1", "note": "[Example 915, N-(4-{[(3R)-1-(3-methylbutanoyl)pyrrolidin-3-yl]oxy}phenyl)-1-(6-methylpyridazin-3-yl)azetidine-3-carboxamide]", "IC50": 139}
{"smiles": "COCCNC(=O)c1ccc(NC(=O)C2CN(c3cccnn3)C2)cc1", "note": "[Example 1023, N-{4-[(2-methoxyethyl)carbamoyl]phenyl}-1-(pyridazin-3-yl)azetidine-3-carboxamide]", "IC50": 508}
{"smiles": "O=C(Nc1ccc(CC2CCN(C(=O)CC3CCCC3)CC2)cc1)C1CN(c2cccnn2)C1", "note": "[Example 962, N-(4-{[1-(cyclopentylacetyl)piperidin-4-yl]methyl}phenyl)-1-(pyridazin-3-yl)azetidine-3-carboxamide]", "IC50": 2.4}
{"smiles": "O=C(Nc1ccc(CC2CCN(C(=O)c3nccs3)CC2)cc1)C1CN(c2cccnn2)C1", "note": "[Example 951, 1-(pyridazin-3-yl)-N-(4-{[1-(1,3-thiazol-2-ylcarbonyl)piperidin-4-yl]methyl}phenyl)azetidine-3-carboxamide]", "IC50": 2.77}
{"smiles": "CC[C@@H](C)NC(=O)c1ccc(NC(=O)C2CN(c3cccnn3)C2)cc1", "note": "[Example 987, N-{4-[(2R)-butan-2-ylcarbamoyl]phenyl}-1-(pyridazin-3-yl)azetidine-3-carboxamide]", "IC50": 609}
{"smiles": "CC(C)(C)CC(=O)N1CCC(Cc2ccc(NC(=O)C3CN(c4cccnn4)C3)cc2)CC1", "note": "[Example 898, N-(4-{[1-(3,3-dimethylbutanoyl)piperidin-4-yl]methyl}phenyl)-1-(pyridazin-3-yl)azetidine-3-carboxamide]", "IC50": 0.851}
{"smiles": "CC1(Cn2cc(-c3ccc(NC(=O)C4CN(c5cccnn5)C4)cn3)cn2)CCNCC1", "note": "[Example 926, N-(6-{1-[(4-methylpiperidin-4-yl)methyl]-1H-pyrazol-4-yl}pyridin-3-yl)-1-(pyridazin-3-yl)azetidine-3-carboxamide]", "IC50": 602}
{"smiles": "COCCOCC(=O)N1CCC(Cc2ccc(NC(=O)C3CN(c4cccnn4)C3)cc2)CC1", "note": "[Example 945, N-[4-({1-[(2-methoxyethoxy)acetyl]piperidin-4-yl}methyl)phenyl]-1-(pyridazin-3-yl)azetidine-3-carboxamide]", "IC50": 4.51}
{"smiles": "CCOC(=O)c1cc(-c2ccc(NC(=O)C3CN(c4cccnn4)C3)cc2)n(-c2ccccc2)n1", "note": "[Example 913, ethyl 1-phenyl-5-[4-({[1-(pyridazin-3-yl)azetidin-3-yl]carbonyl}amino)phenyl]-1H-pyrazole-3-carboxylate]", "IC50": 66.3}
{"smiles": "CN1CCCC(CNC(=O)c2ccc(NC(=O)C3CN(c4cccnn4)C3)cc2)C1", "note": "(centres unmarked) [Example 1003, N-(4-{[(1-methylpiperidin-3-yl)methyl]carbamoyl}phenyl)-1-(pyridazin-3-yl)azetidine-3-carboxamide]", "IC50": 1070}
{"smiles": "CC(C)(C)OC(=O)N1CCC(n2cc(NC(=O)C3CN(c4cccnn4)C3)cn2)CC1", "note": "[Example 925, tert-butyl 4-[4-({[1-(pyridazin-3-yl)azetidin-3-yl]carbonyl}amino)-1H-pyrazol-1-yl]piperidine-1-carboxylate]", "IC50": 10.1}
{"smiles": "Cc1ccnnc1N1CC[C@H](C(=O)Nc2ccc(C3CCN(C(=O)C(C)(C)C)CC3)cc2)C1", "note": "[Example 922, (3S)—N-{4-[1-(2,2-dimethylpropanoyl)piperidin-4-yl]phenyl}-1-(4-methylpyridazin-3-yl)pyrrolidine-3-carboxamide]", "IC50": 3.38}
{"smiles": "CN1CCC(NC(=O)c2ccc(NC(=O)C3CN(c4cccnn4)C3)cc2)CC1", "note": "[Example 986, N-{4-[(1-methylpiperidin-4-yl)carbamoyl]phenyl}-1-(pyridazin-3-yl)azetidine-3-carboxamide]", "IC50": 7470}
{"smiles": "COCC(=O)N1CCC(Cc2ccc(NC(=O)C3CN(c4cccnn4)C3)cc2)CC1", "note": "[Example 943, N-(4-{[1-(methoxyacetyl)piperidin-4-yl]methyl}phenyl)-1-(pyridazin-3-yl)azetidine-3-carboxamide]", "IC50": 7.6}
{"smiles": "CCCC(=O)N1CCC(Cc2ccc(NC(=O)C3CN(c4cccnn4)C3)cc2)CC1", "note": "[Example 959, N-{4-[(1-butanoylpiperidin-4-yl)methyl]phenyl}-1-(pyridazin-3-yl)azetidine-3-carboxamide]", "IC50": 2.33}
{"smiles": "Cn1cccc1C(=O)N1CCC(Cc2ccc(NC(=O)C3CN(c4cccnn4)C3)cc2)CC1", "note": "[Example 949, N-[4-({1-[(1-methyl-1H-pyrrol-2-yl)carbonyl]piperidin-4-yl}methyl)phenyl]-1-(pyridazin-3-yl)azetidine-3-carboxamide]", "IC50": 5.95}
